# Molecular target: Cathepsin S (Homo sapiens, UniProt P25774)
# Experiment: Cathepsin S inhibition, fluorogenic peptide substrate kinetic assay
# Type: biochemical
# Conditions: Table II; Cathepsin S inhibition constant, pH5.5; read-out: Ki Cat. S
# Procedure, shortened: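 Ki values derive from apparent constants fitted to progress curves, corrected for competition with substrate via [S] and Km. Kinetics were monitored at 380 nm excitation/450 nm emission, after substrate addition (Ac-HPVK-ACC, 50 μM final) to start the reaction.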
# Chain of Cathepsin S (P25774 115-331, species assumed): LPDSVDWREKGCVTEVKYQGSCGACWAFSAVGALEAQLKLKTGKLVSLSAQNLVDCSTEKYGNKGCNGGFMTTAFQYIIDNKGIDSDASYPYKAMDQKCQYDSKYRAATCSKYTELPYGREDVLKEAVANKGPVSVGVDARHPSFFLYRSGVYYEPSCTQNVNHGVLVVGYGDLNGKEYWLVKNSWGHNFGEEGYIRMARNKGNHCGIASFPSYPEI
row,Compound,Ki [nM]
1,"O=C(NCCN1CCc2cc(F)ccc21)[C@H](CC1CCCCC1)NS(=O)(=O)c1ccc(S(=O)(=O)c2ccccc2)s1 [Compound 256, (S)-2-(5-Benzenesulfonyl-thiophene-2-sulfonylamino)-3-cyclohexyl-N-[2-(5-fluoro-2,3-dihydro-indol-1-yl)-ethyl]-propionamide]",< 1000
2,"C[C@@H](CN1CCc2cc(F)ccc21)NC(=O)[C@H](CC(C)(C)C)NC(=O)Cc1nnn[nH]1 [Compound 179, 4,4-Dimethyl-2-(S)-(2-1H-tetrazol-5-yl-acetylamino)-pentanoic acid [2-(5-fluoro-2,3-dihydro-indol-1-yl)-1-(S)-methyl-ethyl]-amide]",< 1000
3,"COc1ccc(S(=O)(=O)N2CCC(C(=O)N[C@@H](CC3CCCCC3)C(=O)NCCN3CCc4cc(F)ccc43)CC2)cc1 [Compound 57, 1-(4-Methoxy-benzenesulfonyl)-piperidine-4-carboxylic acid (S)-{2-cyclohexyl-1-[2-(5-fluoro-2,3-dihydro-indol-1-yl)-ethylcarbamoyl]-ethyl}-amide]",< 1000
4,"O=C(NCCN1CCc2cc(F)ccc21)[C@H](CC1CCCCC1)NS(=O)(=O)c1ccc(Oc2ccc(F)cc2)cc1 [Compound 236, (S)-3-Cyclohexyl-N-[2-(5-fluoro-2,3-dihydro-indol-1-yl)-ethyl]-2-[4-(4-fluoro-phenoxy)-benzenesulfonylamino]-propionamide]",< 1000
5,"O=C(NCCN1CCc2cc(F)ccc21)[C@H](CC1CCCCC1)NS(=O)(=O)c1cccc2ccccc12 [Compound 228, (S)-3-Cyclohexyl-N-[2-(5-fluoro-2,3-dihydro-indol-1-yl)-ethyl]-2-(naphthalene-1-sulfonylamino)-propionamide]",< 1000
6,"O=C(Nc1ccc(-c2ccccc2)cc1)N[C@@H](CC1CCCCC1)C(=O)NCCN1CCc2cc(F)ccc21 [Compound 225, (S)-2-(3-Biphenyl-4-yl-ureido)-3-cyclohexyl-N-[2-(5-fluoro-2,3-dihydro-indol-1-yl)-ethyl]-propionamide]",< 1000
7,"O=C(NCCN1CCc2cc(F)ccc21)[C@H](CC1CCCCC1)NS(=O)(=O)c1cc2ccccc2s1 [Compound 234, (S)-2-(Benzo[b]thiophene-2-sulfonylamino)-3-cyclohexyl-N-[2-(5-fluoro-2,3-dihydro-indol-1-yl)-ethyl]-propionamide]",< 1000
8,"O=C(NCCN1CCc2cc(F)ccc21)[C@H](CC1CCCCC1)NS(=O)(=O)c1ccsc1 [Compound 248, (S)-3-Cyclohexyl-N-[2-(5-fluoro-2,3-dihydro-indol-1-yl)-ethyl]-2-(thiophene-3-sulfonylamino)-propionamide]",< 1000
9,"COc1ccc(Oc2ccc(S(=O)(=O)N[C@@H](CC3CCCCC3)C(=O)NCCN3CCc4cc(F)ccc43)cc2)cc1 [Compound 244, (S)-3-Cyclohexyl-N-[2-(5-fluoro-2,3-dihydro-indol-1-yl)-ethyl]-2-[4-(4-methoxy-phenoxy)-benzenesulfonylamino]-propionamide]",< 100
10,"C[C@@H](CNc1ccc(OC(F)(F)F)cc1)NC(=O)[C@H](CC1CCCCC1)NC(=O)c1ccc(-c2cccc(F)c2)o1 [Compound 83, 5-(3-Fluoro-phenyl)-furan-2-carboxylic acid {2-cyclohexyl-1-(S)-[1-(S)-methyl-2-(4-trifluoromethoxy-phenylamino)-ethylcarbamoyl]-ethyl}-amide]",< 100
11,"C[C@@H](CNc1ccc(OC(F)(F)F)cc1)NC(=O)[C@H](CC1CCCCC1)NC(=O)C1CCOC1 (mixture of isomers) [Compound 272, Tetrahydrofuran-3-(R,S)-carboxylic acid {2-cyclohexyl-1-(S)-[1-(S)-methyl-2-(4-trifluoromethoxy-phenylamino)-ethylcarbamoyl]-ethyl}-amide]",< 100

# Now from value to molecule:
row,Ki [nM],Compound
1,< 100,"COc1cccc(C(=O)NC(C(=O)N[C@@H](COCc2ccccc2)CN2CCc3cc(F)ccc32)c2ccccc2)c1 (mixture of isomers) [Compound 36, N-(S)-{[1-(R)-Benzyloxymethyl-2-(5-fluoro-2,3-dihydro-indol-1-yl)-ethylcarbamoyl]-phenyl-methyl}-3-methoxy-benzamide]"
2,< 100,"COc1ccc(NC[C@H](COCc2ccccc2)NC(=O)[C@H](CC(C)C)NC(=O)c2cccc(C)c2)cc1 [Compound 35, N-{1-(S)-[1-(R)-Benzyloxymethyl-2-(4-methoxy-phenylamino)-ethylcarbamoyl]-3-methyl-butyl}-3-methyl-benzamide]"
3,< 100,"O=C(NCCN1CCc2cc(F)ccc21)[C@H](CC1CCCCC1)NS(=O)(=O)c1ccc(-c2cnco2)cc1 [Compound 246, (S)-3-Cyclohexyl-N-[2-(5-fluoro-2,3-dihydro-indol-1-yl)-ethyl]-2-(4-oxazol-5-yl-benzenesulfonylamino)-propionamide]"
4,< 100,"CSc1ccc(NC[C@H](C)NC(=O)[C@H](CC2CCCCC2)NC(=O)c2ccc(-c3cccc(F)c3)o2)cc1 [Compound 117, 5-(3-Fluoro-phenyl)-furan-2-carboxylic acid {2-cyclohexyl-1-(S)-[1-(S)-methyl-2-(4-methylsulfanyl-phenylamino)-ethylcarbamoyl]-ethyl}-amide]"
5,< 100,"O=C(N[C@@H](CC1CCCCC1)C(=O)NCCN1CCc2cc(F)ccc21)c1ccco1 [Compound 9, Furan-2-carboxylic acid (S)-{2-cyclohexyl-1-[2-(5-fluoro-2,3-dihydro-indol-1-yl)-ethylcarbamoyl]-ethyl}-amide]"
6,< 100,"Cc1cccc(C(=O)N[C@@H](CC(C)C)C(=O)N[C@@H](CCC(=O)O)CN2CCc3cc(F)ccc32)c1 [Compound 43, (S,S)-5-(5-Fluoro-2,3-dihydro-indol-1-yl)-4-[4-methyl-2-(3-methyl-benzoylamino)-pentanoylamino]-pentanoic acid]"
7,< 100,"C[C@@H](CNc1ccc2c(c1)OCO2)NC(=O)[C@H](CC1CCCCC1)NC(=O)c1ccc(-c2cccc(F)c2)o1 [Compound 85, 5-(3-Fluoro-phenyl)-furan-2-carboxylic acid {1-(S)-[2-(benzo[1,3]dioxol-5-ylamino)-1-(S)-methyl-ethylcarbamoyl]-2-cyclohexyl-ethyl}-amide]"
8,< 100,"C[C@@H](CNc1ccc(OC(F)(F)F)cc1)NC(=O)[C@H](CC1CCCCC1)NC(=O)c1nc(-c2ccc(F)cc2)no1 [Compound 109, 3-(4-Fluoro-phenyl)-[1,2,4]oxadiazole-5-carboxylic acid {2-cyclohexyl-1-(S)-[1-(S)-methyl-2-(4-trifluoromethoxy-phenylamino)-ethylcarbamoyl]-ethyl}-amide]"
9,< 100,"COc1ccc(NC[C@H](C)NC(=O)[C@H](CCC2CCCCC2)NC(=O)c2ccc(-c3cccc(C(F)(F)F)c3)o2)cc1 [Compound 27, 5-(3-Trifluoromethyl-phenyl)-furan-2-carboxylic acid {3-cyclohexyl-(1S)-[2-(4-methoxy-phenylamino)-(1S)-methyl-ethylcarbamoyl]-propyl}-amide]"
10,< 100,"C[C@@H](CNc1ccc(S(C)(=O)=O)cc1)NC(=O)[C@H](CC1CCCCC1)NC(=O)c1ccc(-c2ccc(F)cc2)o1 [Compound 107, 5-(4-Fluoro-phenyl)-furan-2-carboxylic acid {2-cyclohexyl-1-(S)-[2-(4-methanesulfonyl-phenylamino)-1-(S)-methyl-ethylcarbamoyl]-ethyl}-amide]"

# From patent publication US20040248887A1, “Inhibitors of cathepsin S” (IRM LLC, priority 2003, published 2004)
